Source: a compilation of properties of binary mixtures (doi:10.1007/s10953-016-0490-x)

Experiment: xn = mol fraction of the nth substance listed
Conditions: 100 kPa

Question: With `CCOC(C)=O` + CCCC[n+]1ccn(C)c1.O=S(=O)([O-])C(F)(F)F as the compound, how does the speed of sound (303.15 K, x2 = 0) read?
Answer: 1118.3 m/s

Question: And the viscosity (303.15 K, x2 = 0)?
Answer: 0.4 mPa·s

Question: What about the speed of sound (308.15 K, x2 = 0) of the same compound?
Answer: 1096 m/s

Question: And the viscosity (308.15 K, x2 = 0)?
Answer: 0.37 mPa·s

Question: What about the speed of sound (313.15 K, x2 = 0) of the same compound?
Answer: 1073.7 m/s

Question: And the viscosity (313.15 K, x2 = 0)?
Answer: 0.35 mPa·s

Question: And the speed of sound (318.15 K, x2 = 0)?
Answer: 1051.7 m/s

Question: What about the viscosity (318.15 K, x2 = 0) of the same compound?
Answer: 0.34 mPa·s

Question: What about the speed of sound (323.15 K, x2 = 0) of the same compound?
Answer: 1029.5 m/s

Question: What about the viscosity (323.15 K, x2 = 0) of the same compound?
Answer: 0.33 mPa·s

Question: With `CCCC[n+]1ccn(C)c1.O=S(=O)([O-])C(F)(F)F` + CCOC(C)=O as the compound, how does the speed of sound (298.15 K, x1 = 0.0991) read?
Answer: 1172.2 m/s

Question: And the viscosity (298.15 K, x1 = 0.0991)?
Answer: 1.27 mPa·s

Question: And the speed of sound (298.15 K, x1 = 0.1916)?
Answer: 1209.8 m/s

Question: What about the viscosity (298.15 K, x1 = 0.1916) of the same compound?
Answer: 4.59 mPa·s

Question: What about the speed of sound (298.15 K, x1 = 0.3056) of the same compound?
Answer: 1252.1 m/s

Question: And the viscosity (298.15 K, x1 = 0.3056)?
Answer: 10.8 mPa·s

Question: And the speed of sound (298.15 K, x1 = 0.3978)?
Answer: 1279.4 m/s

Question: And the viscosity (298.15 K, x1 = 0.3978)?
Answer: 16 mPa·s

Question: And the speed of sound (298.15 K, x1 = 0.5067)?
Answer: 1310.3 m/s

Question: What about the viscosity (298.15 K, x1 = 0.5067) of the same compound?
Answer: 22 mPa·s

Question: What about the speed of sound (298.15 K, x1 = 0.7138) of the same compound?
Answer: 1361.8 m/s

Question: What about the viscosity (298.15 K, x1 = 0.7138) of the same compound?
Answer: 35 mPa·s

Question: And the speed of sound (298.15 K, x1 = 0.7987)?
Answer: 1374.2 m/s

Question: And the viscosity (298.15 K, x1 = 0.7987)?
Answer: 41.8 mPa·s

Question: What about the speed of sound (298.15 K, x1 = 1) of the same compound?
Answer: 1393.2 m/s

Question: And the viscosity (298.15 K, x1 = 1)?
Answer: 82 mPa·s

Question: What about the speed of sound (303.15 K, x1 = 0.0991) of the same compound?
Answer: 1153.5 m/s

Question: What about the viscosity (303.15 K, x1 = 0.0991) of the same compound?
Answer: 0.99 mPa·s

Question: And the speed of sound (303.15 K, x1 = 0.1916)?
Answer: 1191.9 m/s

Question: And the viscosity (303.15 K, x1 = 0.1916)?
Answer: 3.76 mPa·s

Question: And the speed of sound (303.15 K, x1 = 0.3056)?
Answer: 1236.1 m/s

Question: And the viscosity (303.15 K, x1 = 0.3056)?
Answer: 9 mPa·s

Question: And the speed of sound (303.15 K, x1 = 0.5067)?
Answer: 1296.5 m/s

Question: What about the viscosity (303.15 K, x1 = 0.5067) of the same compound?
Answer: 18.5 mPa·s

Question: What about the speed of sound (303.15 K, x1 = 0.6095) of the same compound?
Answer: 1324.9 m/s

Question: What about the viscosity (303.15 K, x1 = 0.6095) of the same compound?
Answer: 23.6 mPa·s

Question: And the speed of sound (303.15 K, x1 = 0.7138)?
Answer: 1349.9 m/s

Question: And the viscosity (303.15 K, x1 = 0.7138)?
Answer: 29.1 mPa·s

Question: And the speed of sound (303.15 K, x1 = 0.7987)?
Answer: 1362.1 m/s

Question: What about the viscosity (303.15 K, x1 = 0.7987) of the same compound?
Answer: 34.7 mPa·s

Question: What about the speed of sound (303.15 K, x1 = 0.8932) of the same compound?
Answer: 1371.6 m/s

Question: And the viscosity (303.15 K, x1 = 0.8932)?
Answer: 44.9 mPa·s

Question: What about the speed of sound (308.15 K, x1 = 0.0991) of the same compound?
Answer: 1132.8 m/s

Question: What about the viscosity (308.15 K, x1 = 0.0991) of the same compound?
Answer: 0.89 mPa·s

Question: And the speed of sound (308.15 K, x1 = 0.1916)?
Answer: 1174 m/s

Question: What about the viscosity (308.15 K, x1 = 0.1916) of the same compound?
Answer: 3.12 mPa·s

Question: What about the speed of sound (308.15 K, x1 = 0.3056) of the same compound?
Answer: 1220.2 m/s

Question: And the viscosity (308.15 K, x1 = 0.3056)?
Answer: 7.3 mPa·s

Question: What about the speed of sound (308.15 K, x1 = 0.3978) of the same compound?
Answer: 1251.5 m/s

Question: And the viscosity (308.15 K, x1 = 0.3978)?
Answer: 10.8 mPa·s

Question: And the speed of sound (308.15 K, x1 = 0.5067)?
Answer: 1282.6 m/s

Question: And the viscosity (308.15 K, x1 = 0.5067)?
Answer: 15.1 mPa·s

Question: What about the speed of sound (308.15 K, x1 = 0.6095) of the same compound?
Answer: 1312.1 m/s

Question: What about the viscosity (308.15 K, x1 = 0.6095) of the same compound?
Answer: 19.6 mPa·s

Question: What about the speed of sound (308.15 K, x1 = 0.7138) of the same compound?
Answer: 1338.2 m/s

Question: What about the viscosity (308.15 K, x1 = 0.7138) of the same compound?
Answer: 24.6 mPa·s

Question: And the speed of sound (308.15 K, x1 = 0.7987)?
Answer: 1351 m/s

Question: What about the viscosity (308.15 K, x1 = 0.7987) of the same compound?
Answer: 29.1 mPa·s

Question: And the speed of sound (308.15 K, x1 = 0.8932)?
Answer: 1359.7 m/s

Question: What about the viscosity (308.15 K, x1 = 0.8932) of the same compound?
Answer: 37.1 mPa·s

Question: And the speed of sound (308.15 K, x1 = 1)?
Answer: 1371.7 m/s

Question: What about the viscosity (308.15 K, x1 = 1) of the same compound?
Answer: 53 mPa·s

Question: And the speed of sound (313.15 K, x1 = 0.1916)?
Answer: 1156.4 m/s

Question: What about the viscosity (313.15 K, x1 = 0.1916) of the same compound?
Answer: 2.89 mPa·s

Question: What about the speed of sound (313.15 K, x1 = 0.3056) of the same compound?
Answer: 1204.4 m/s

Question: What about the viscosity (313.15 K, x1 = 0.3056) of the same compound?
Answer: 6.6 mPa·s

Question: And the speed of sound (313.15 K, x1 = 0.3978)?
Answer: 1237.6 m/s

Question: What about the viscosity (313.15 K, x1 = 0.3978) of the same compound?
Answer: 9.8 mPa·s

Question: What about the speed of sound (313.15 K, x1 = 0.5067) of the same compound?
Answer: 1268.7 m/s

Question: What about the viscosity (313.15 K, x1 = 0.5067) of the same compound?
Answer: 13.5 mPa·s

Question: What about the speed of sound (313.15 K, x1 = 0.6095) of the same compound?
Answer: 1300.4 m/s

Question: And the viscosity (313.15 K, x1 = 0.6095)?
Answer: 17.1 mPa·s

Question: And the speed of sound (313.15 K, x1 = 0.7138)?
Answer: 1326.8 m/s

Question: And the viscosity (313.15 K, x1 = 0.7138)?
Answer: 20.9 mPa·s

Question: And the speed of sound (313.15 K, x1 = 0.7987)?
Answer: 1338.3 m/s

Question: What about the viscosity (313.15 K, x1 = 0.7987) of the same compound?
Answer: 24.6 mPa·s

Question: And the speed of sound (313.15 K, x1 = 0.8932)?
Answer: 1349.5 m/s

Question: And the viscosity (313.15 K, x1 = 0.8932)?
Answer: 31 mPa·s

Question: And the speed of sound (318.15 K, x1 = 0.0991)?
Answer: 1091.7 m/s

Question: What about the viscosity (318.15 K, x1 = 0.0991) of the same compound?
Answer: 0.79 mPa·s

Question: What about the speed of sound (318.15 K, x1 = 0.3056) of the same compound?
Answer: 1188.6 m/s

Question: What about the viscosity (318.15 K, x1 = 0.3056) of the same compound?
Answer: 5.8 mPa·s

Question: What about the speed of sound (318.15 K, x1 = 0.3978) of the same compound?
Answer: 1223.7 m/s

Question: And the viscosity (318.15 K, x1 = 0.3978)?
Answer: 8.5 mPa·s

Question: And the speed of sound (318.15 K, x1 = 0.5067)?
Answer: 1254 m/s

Question: And the viscosity (318.15 K, x1 = 0.5067)?
Answer: 11.7 mPa·s

Question: What about the speed of sound (318.15 K, x1 = 0.6095) of the same compound?
Answer: 1288 m/s

Question: And the viscosity (318.15 K, x1 = 0.6095)?
Answer: 14.8 mPa·s

Question: What about the speed of sound (318.15 K, x1 = 0.7138) of the same compound?
Answer: 1314.3 m/s

Question: And the viscosity (318.15 K, x1 = 0.7138)?
Answer: 18 mPa·s

Question: And the speed of sound (318.15 K, x1 = 0.7987)?
Answer: 1326.4 m/s

Question: What about the viscosity (318.15 K, x1 = 0.7987) of the same compound?
Answer: 21.1 mPa·s

Question: And the speed of sound (318.15 K, x1 = 0.8932)?
Answer: 1337.3 m/s

Question: What about the viscosity (318.15 K, x1 = 0.8932) of the same compound?
Answer: 26.2 mPa·s

Question: And the speed of sound (323.15 K, x1 = 0.0991)?
Answer: 1071.3 m/s

Question: What about the viscosity (323.15 K, x1 = 0.0991) of the same compound?
Answer: 0.75 mPa·s

Question: And the speed of sound (323.15 K, x1 = 0.1916)?
Answer: 1120.7 m/s

Question: What about the viscosity (323.15 K, x1 = 0.1916) of the same compound?
Answer: 2.26 mPa·s

Question: And the speed of sound (323.15 K, x1 = 0.3056)?
Answer: 1172.8 m/s

Question: What about the viscosity (323.15 K, x1 = 0.3056) of the same compound?
Answer: 5 mPa·s

Question: What about the speed of sound (323.15 K, x1 = 0.3978) of the same compound?
Answer: 1210.9 m/s

Question: And the viscosity (323.15 K, x1 = 0.3978)?
Answer: 7.2 mPa·s

Question: What about the speed of sound (323.15 K, x1 = 0.5067) of the same compound?
Answer: 1240.3 m/s

Question: What about the viscosity (323.15 K, x1 = 0.5067) of the same compound?
Answer: 9.9 mPa·s

Question: And the speed of sound (323.15 K, x1 = 0.6095)?
Answer: 1274.9 m/s

Question: And the viscosity (323.15 K, x1 = 0.6095)?
Answer: 12.9 mPa·s

Question: And the speed of sound (323.15 K, x1 = 0.7138)?
Answer: 1303.2 m/s

Question: What about the viscosity (323.15 K, x1 = 0.7138) of the same compound?
Answer: 15.6 mPa·s

Question: What about the speed of sound (323.15 K, x1 = 1) of the same compound?
Answer: 1338.8 m/s

Question: What about the viscosity (323.15 K, x1 = 1) of the same compound?
Answer: 30.6 mPa·s
